Data set [1] relates to neutrophils / human umbilical vein endothelial cells. In words: Adhesion agonist (neutrophil-endothelial cell adhesion assay). In kind it is cell-based. Conditions: read-out: Adhesion Agonist EC50. How it is done:
(§1) The unconjugated peptide iBoc-MLFK was evaluated in a neutrophil-endothelial cell adhesion assay. In this assay, neutrophils (5×10^5) labeled with 5-carboxyfluorescein diacetate were added into wells of a 48 well dish containing confluent human umbilical vein endothelial cells. The iBoc-MLFK peptide was added at a concentration of 10 μM 10 min prior to stimulation of neutrophils with 30 nM ForMLF. Percent adhesion was determined by washing off unattached neutrophils after an incubation period of 25 minutes. This peptide inhibited adhesion by 66% at this concentration. Subsequently, concentrations between 0.1-3.0 μM were examined. […] Inhibition of adhesion would reduce the infiltration of leukocytes, such as neutrophils, to a diseased site, thereby limiting the tissue damage associated with inflammation.
(§2) The procedure of Example 5 was repeated for additional CP's within the scope of the present invention. The results are shown in Table I. In the table, MPO is myeloperoxidase assay, a "-" sign means there was no effect at 30 μM, a "+" sign means there was a positive effect at 30 μM, and "N.T." means "Not

The test system is the same in data set [2]. In words: cells. In kind it is cell-based. The method, then: as §1, §2
The next data set has as its system E. coli infection. Further details: species or system New Zealand white rabbits. Conditions: rabbit, in vivo. The method, then: Male New Zealand white rabbits weighing 2.2-3.0 kg were used in all studies. E. coli from a single clinical isolate were grown overnight on trypticase soy agar plates and individual colonies were diluted with sterile normal saline to produce a turbid suspension containing approximately 1×10^11 organisms/0.5 mL (determined with a spectrophotometer). A 0.5 mL inoculum of the bacterial suspension was injected deep in the left thigh muscle of the rabbits.
Twenty four hours after inoculation, rabbits with gross swelling in the infected thigh were injected with the radiopharmaceuticals through a lateral ear vein. Six animals were injected with a mixture of 1 mCi ^99m Tc-HP (>5,000 mCi/μMole) and 0.05 mCi of ^111 In labeled white blood cells.
At 3, 6, and 18 hours after injection of the radiolabeled reagents, the animals were anesthetized with ketamine/xylazine (15.0 and 1.5 mg/kg) and anterior whole body scintigrams were acquired using a large field of view gamma camera equipped with a parallel hole medium energy collimator interfaced to a dedicated computer system (Technicare Gemini 700, Technicare 560, Solon, Ohio). ^111 In and ^99m Tc images were acquired simultaneously in dual photon mode with 15% windows centered on photopeaks at 140 KeV for ^99m Tc and 247 KeV for ^111 In. At 3 and 6 hours after injection, two sets of images were acquired for a preset time of 5 minutes/view. At 18 hours after injection, the imaging time was extended to 10 minutes per view. Regions of interest were drawn over the area of infection and the contralateral normal muscle (background). The results were expressed as target-to-background ratios (infected thigh/contralateral thigh).
After acquiring the final images, the animals were sacrificed with an overdose of sodium pentobarbital and biodistribution was determined. Samples of blood, heart, lung, liver, spleen, kidney, adrenal, stomach, GI tract, testes, bone, bone marrow, normal muscle, infected muscle, and pus were weighed and radioactivity was measured with a well type gamma counter (LKB model #1282, Wallac Oy, Finland). To correct for radioactive decay and permit calculation of the concentration of radioactivity in each organ as a fraction of the administered dose, aliquots of the injected doses were counted simultaneously. The results were expressed as percent injected dose per gram (%I.D./g), infected to normal muscle ratios, and pus to normal muscle ratios.
To determine the nature of the radioactivity in the circulation and at the site of infection, the blood and pus samples were fractionated by gradient centrifugation on Lymphoprep. The plasma was further fractionated on a column of Sephadex G-100 (1.0×25 cm) eluted with PBS, pH 7.4. […]

Data set [3] addresses T1, neutrophils (Homo sapiens, UniProt P21462).
T1 sequence (P21462 1-350): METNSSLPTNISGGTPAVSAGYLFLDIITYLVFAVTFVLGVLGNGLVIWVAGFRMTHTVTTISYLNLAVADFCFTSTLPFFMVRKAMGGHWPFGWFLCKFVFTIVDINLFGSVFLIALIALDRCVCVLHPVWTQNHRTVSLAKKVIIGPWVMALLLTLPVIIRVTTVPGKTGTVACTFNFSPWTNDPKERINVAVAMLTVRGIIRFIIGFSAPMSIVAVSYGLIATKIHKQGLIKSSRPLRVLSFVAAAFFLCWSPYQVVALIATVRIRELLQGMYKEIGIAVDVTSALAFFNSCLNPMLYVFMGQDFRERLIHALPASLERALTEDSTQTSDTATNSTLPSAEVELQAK
In words: Binding (Table I, Cell Biology Data). Conditions: for Binding EC50: class symbol. The text has this:
Three non-DTPA derivatized peptides were included in the assay for comparison.

For data set [4], the target named is T1, neutrophils. In words: Free radicals agonist (neutrophil free radical chemiluminescence). Conditions: class symbol. In kind it is cell-based.
The target of data set [5] is T1, neutrophils. The data set can be described thus: Free radicals antagonist (inhibition of ForMLF stimulated free radical chemiluminescence). In kind it is cell-based.
Data set [6] addresses T2, chemoattractant receptor on human PMN's (Homo sapiens, UniProt P21462).
T2 construct: endogenous in cells; host or cells: isolated human PMN's (neutrophils) from healthy volunteers, intact cells
T2 sequence (P21462 1-350): T1 sequence (P21462 1-350)
The data set can be described thus: For-MLF receptor binding assay (For-ML[3H]F displacement). Conditions: 15 nM For-ML[3H]F, 45 min, 24° C. The method, then: Following incubation, the cells were filtered onto glass fiber discs (Whatman GF/C; Whatman, Inc., Clifton, N.J.) which were then washed with 20 mL of ice cold incubation buffer. The filters were placed in scintillation vials with 10 mL of Safety-Solve (Research Products International Corp., Mt. Prospect, Ill.) and radioactivity was measured by liquid scintillation spectroscopy. Specific binding is defined as total binding minus nonspecific binding. Nonspecific binding is the amount of residual bound radioactivity in the presence of 10 μM unlabeled For-MLF.
The chemical purity of the final product was evaluated by TLC, HPLC, UV spectroscopy, mass spectroscopy, and amino acid analysis. Determinations of the EC50 's for binding to the chemoattractant receptor on human PMN's and superoxide generation were performed as described in Pike, M. C., and Snyderman, R., Methods Enzymol. 162:236-245 (1988); Pike, M. C., et al., Blood 67:909-913 (1986); and Fischman, A. J., et al., J. Nucl. Med. 32:483-491 (1991).

Setting [7] is: read-out: Adhesion Antagonist IC50.

Where two headings read alike, the source gives them in different places. *1 amine or outer side, *2 acyl side, *3 side chain or, on linkers, in order; H or OH if unused. Where a SMILES comes first, the peptide text is derived from it. Side-chain parts run from the residue outwards. [ ]: non-standard residue; d: D form. The star is where a group is joined. Isobutyloxycarbonyl = CC(C)COC(=O)*; Met(O) = CS(=O)CC[C@H](N)C(=O)O; Cha = N[C@@H](CC1CCCCC1)C(=O)O; HYNIC = NNc1ccc(C(=O)*)cn1; Nle = CCCC[C@H](N)C(=O)O; CO = O=C([*:1])[*:2]; NHPh = c1ccc(N*)cc1; NHiPr = CC(C)N*; For = O=C*

As a reminder, the EC50 is the concentration that produces a half-maximal response. As a reminder, the IC50 is the concentration needed to halve the response being measured.

In the case of `CSCC[C@H](NC=O)C(=O)N[C@@H](CC(C)C)C(=O)N[C@@H](Cc1ccccc1)C(=O)O` [Example 59, N-formyl-methionyl-leucyl-phenylalanine, reference compound], in data set [1], the EC50 is 0.007 µM.

With `CC(C)C[C@H](NC(=O)OCC1c2ccccc2-c2ccccc21)C(=O)O` [Example 11, FMOC-Leucine], the IC50 in data set [2] (Homo sapiens, read-out: Adhesion Antagonist IC50) came out at 20 µM.

Take `CCCCC(=O)N[C@@H](CCSC)C(=O)N[C@@H](CC(C)C)C(=O)N[C@@H](Cc1ccccc1)C(=O)O` [Example 79, n-butyl-amidyl-MLF]: the EC50 in data set [1] (class symbol) was more than 30 µM. In data set [2] (setting [7]), the IC50 was 9.6 µM.

For `CSCC[C@H](NC(=O)OCC(C)C)C(=O)N[C@@H](CC(C)C)C(=O)N[C@@H](Cc1ccccc1)C(=O)N[C@@H](CCCCN)C(N)=O` [Example 41, iBoc--MLFK] (Isobutyloxycarbonyl-MLFK-NH2), the IC50 in data set [2] was approximately 14 µM.

Take `CSCC[C@H](NC=O)C(=O)N[C@@H](CC(C)C)C(=O)N[C@@H](Cc1ccccc1)C(=O)N[C@@H](CCCCNC(=O)c1ccc(NN)nc1)C(=O)O` [Example 99mTc-HP, Formyl-Methionyl-Leucyl-Phenylalanyl-Lysyl-hydrazininicotinamide, metal not drawn] (For-MLFK(HYNIC)-OH): in the data set with E. coli infection, the “binding to red blood cells” value is on record as less than 2%, the “circulating radioactivity associated with leukocytes” value is listed as ~ 25%, the “plasma radioactivity not bound to WBC's eluting with apparent molecular weight of 150,000 (IgG fraction)” value is more than 95% and the “radioactivity of pus associated with WBC's” value is listed as “approximately 90%”.

As to iBoc--MLF--S--SPNH [Example 39], the EC50 is 0.6 to 22 µM at neutrophils [3] and more than 30 µM on neutrophils [4]. Besides, the results for the IC50 (in data set [2] (setting [7]); on neutrophils [5]) were more than 30 µM and 3 to 3.5 µM, respectively.

As to `CSCC[C@H](NC(=O)NC(C)C)C(=O)N[C@@H](CC(C)C)C(=O)N[C@@H](Cc1ccccc1)C(=O)N[C@@H](CCCCNC(=O)[C@H](CC(=O)O)NC(=O)c1ccc(NN)nc1)C(=O)O` [Example 29, i-proplyurea-MLF--Lys--Asp--SHNH] ({NHiPr-CO}-MLFK([Asp-HYNIC])-OH; C-terminus assumed), the EC50 in data set [1] was determined as 0.73 µM. For the same compound, the IC50 in data set [2] (setting [7]) was more than 30 µM.

Consider `NNc1ccc(C(=O)O)cn1` [Example 26, Hynic], for which, in data set [1] (Homo sapiens), the EC50 was more than 30 µM.

For Leu--Ala--SHNH--Boc [Example 8], the figures for the EC50 on neutrophils [3] and on neutrophils [4] were more than 100 µM and more than 30 µM, respectively.

Consider `CCCCNC(=O)N[C@@H](CCSC)C(=O)N[C@@H](CC(C)C)C(=O)N[C@@H](Cc1ccccc1)C(=O)O` [Example 65, N-butylurea-MLF], for which the EC50 in data set [1] (class symbol) was less than 30 µM.

`CSCC[C@H](NC(=O)NC(C)C)C(=O)N[C@@H](CC(C)C)C(=O)N[C@@H](Cc1ccccc1)C(=O)NCCCNC(=O)[C@H](CC(=O)O)NC(=O)c1ccc(NN)nc1` [Example 31, i-propylurea-MLF-n-propyldiamine-Asp--SHNH]: the concentration for a half-maximal effect (EC50) in data set [1] stood at 1.1 µM. The IC50 in data set [2] (setting [7]) was more than 30 µM.

`CSCC[C@H](NC(=O)c1ccc[nH]1)C(=O)N[C@@H](CC(C)C)C(=O)N[C@@H](Cc1ccccc1)C(=O)O` [Example 25, Pyrrole-M--L--F]: the IC50 in data set [2] (setting [7]) stood at 6.2 µM.

`CSCC[C@H](NC(=O)Nc1ccccc1)C(=O)N[C@@H](CC(C)C)C(=O)N[C@@H](CC1CCCCC1)C(=O)O` [Example 34] ({NHPh-CO}-Met-Leu-[Cha]-OH): the EC50 in data set [1] (class symbol) was less than 30 µM.

On to `CSCC[C@H](NC(=O)NC(C)C)C(=O)N[C@@H](CC(C)C)C(=O)N[C@@H](Cc1ccccc1)C(=O)NCCCNC(=O)c1ccc(NN)nc1` [Example 30, N-i-propylurea-MLF-propanediamine-SHNH], for which, in data set [1] (class symbol), the EC50 was more than 30 µM. Moreover, the IC50 in data set [2] (setting [7]) is more than 30 µM.

For iBoc--MLF--SPNH [Example 37], the EC50 on neutrophils [3] was 0.15 to 5 µM; at neutrophils [4], more than 30 µM. Further, the results for the IC50 (in data set [2] (setting [7]); against neutrophils [5]) were more than 30 µM and 10 to 30 µM, respectively.

Consider “N(N-isopropylurea-FLFLF-Propanediamine-SPNH [Example 94]”, for which the EC50 on neutrophils [3] was 0.42 µM; at neutrophils [4] it was more than 30 µM; in data set [1] (class symbol), more than 30 µM. On neutrophils [5], this compound registered an IC50 of 5 µM.

For “Isopropylurea-FLFLF--Lys--Lys--SHNH [Example 18]”, the EC50 on neutrophils [3] was 15.7 µM; on neutrophils [4], more than 30 µM. The same compound gave an IC50 against neutrophils [5] of 29.5 µM.

For `CCCC[C@H](NC(=O)OCC(C)C)C(=O)N[C@@H](CC(C)C)C(=O)N[C@@H](Cc1ccccc1)C(=O)N[C@@H](CCCCN)C(N)=O` [Example 49, iBoc--Nle--LFK] (Isobutyloxycarbonyl-[Nle]LFK-NH2), on neutrophils [3], the “Binding EC50” value was “? --”.

In data set [6], `CCCC[C@H](NC=O)C(=O)N[C@@H](CC(C)C)C(=O)N[C@@H](Cc1ccccc1)C(=O)O` [For-NleLF, N-formyl-norleucyl-leucyl-phenylalanine] (For-[Nle]-Leu-Phe-OH) returned an EC50 of 0.3 µM.

For `CC(C)COC(=O)N[C@@H](CC[S+](C)[O-])C(=O)N[C@@H](CC(C)C)C(=O)N[C@@H](Cc1ccccc1)C(=O)N[C@@H](CCCCN)C(N)=O` (stereo partly shown) [Example 50, iBoc--M(O)--LFK] (Isobutyloxycarbonyl-[Met(O)]LFK-NH2), the “Binding EC50” value at neutrophils [3] is “? --”.

Turning to `CSCC[C@H](NC(N)=O)C(=O)N[C@@H](CC(C)C)C(=O)N[C@@H](Cc1ccccc1)C(=O)O` [Example 98, N-hydrourea-MLF], the EC50 in data set [1] was 0.62 µM.

The values above are taken from patent publication US5792444A, “Labeled chemotactic peptides to image focal sites of infection or inflammation” (The General Hospital Corporation, priority 1993, dated 1998).
